Key:
[1] = test system: transplanted tumor of human non-small cell lung cancer cell A549; experiment: A549 transplanted tumor in nude mice; conditions: A549 nude mice, 30 mg/kg
Description: A549 cells in a logarithmic growth phase were taken and subjected to a trypan blue exclusion experiment showing that the cell viability was more than 95%, then the cells were subjected to trypsinization, centrifugation, and supernatant removal. Then cell concentration was adjusted to 1×10^7/ml with matrigel, then each nude mouse was inoculated subcutaneously with 0.2 ml of cells at its right armpit and recorded as the first day of inoculation. When the tumor grows to be greater than or equal to 100 mm^3, the mice were randomly divided into 11 groups with 6 mice in each group: a model group, a cyclophosphamide group, isovaleryl spiramycin I groups with doses of 25, 50 and 100 mg/kg, isovaleryl spiramycin II groups with doses of 25, 50 and 100 mg/kg, and isovaleryl spiramycin III groups with doses of 25, 50 and 100 mg/kg. Each group was continuously administered intragastrically for 30 days with a dose of 20 ml/kg. The mice were sacrificed the next day after drug withdrawal and the indicators were tested. The long diameter and short diameter of the tumor, and the body weight of each mouse were recorded every 3 days from drug administration to nude mouse sacrifice.
The body weight of the nude mice and the long diameter (a) and short diameter (b) of the transplanted tumor were measured every 3 days, and the tumor volume (v), relative tumor volume (RTV) and relative tumor proliferation rate (T/C) are calculated respectively according to the following formulas, wherein V=a×b^2/2; RTV=V/V0 (V0 is the tumor volume before administration, V is the tumor volume before sacrifice), and T/C (%)=treatment group RTV/model control group RTV×100%.
Each mouse was weighed and sacrificed. After the tumor was completely stripped off from the body of the mouse, the non-tumor tissues such as blood stains and fat were removed to weigh the tumor and calculate the tumor growth inhibition rate. The average tumor weight of each group of mice is used as an indicator of efficacy. Tumor growth inhibition rate (%)=(1−the average tumor weight of the treatment group/the average tumor weight of the model group)×100%.

[2] = test system: transplanted tumor of mouse Lewis lung cancer; experiment: Transplanted tumor of mouse Lewis lung cancer
Description: Lewis lung cancer cells were cultured in a RPMI 1640 culture medium containing 10% fetal bovine serum at 37° C. in a 5% CO2 incubator. The cells in the logarithmic growth phase were subjected to trypsinization with 0.25% trypsin, then the cells were collected to be centrifugated to remove the obtained supernatant, then were washed twice with sterile normal saline. […] The Lewis cells were adjusted to 1×10^7/mL in concentration and stored in ice water. 75% ethanol was used to disinfect the skin under the right armpits of the mice, and each C57BL/6 mouse was soon inoculated subcutaneously with 0.2 ml of the cells at its right armpit.
In the Lewis lung cancer model, the mice inoculated with the tumor were randomly divided into groups with 10 mice in each group the next day of inoculation. The groups included: a model control group, a positive drug cyclophosphamide control group (CTX, 30 mg/kg), isovaleryl spiramycin I groups with doses of 13, 26 and 52 mg/kg; isovaleryl spiramycin II groups with doses of 13, 26 and 52 mg/kg; isovaleryl spiramycin III groups with doses of 13, 26 and 52 mg/kg. Each group was continuously administered intragastrically for 15 days with a dose of 20 ml/kg.
The tumor-bearing mice were weighed and sacrificed the next day after the last administration. The subcutaneous tumors were dissected and weighed. The average tumor weight of each group is calculated, and the tumor inhibition rate is calculated.
Tumor inhibition rate=(1−T/C)×100%
T: average tumor weight of the drug-administered group; C: average tumor weight of the blank control group.

[3] = Spleen index of A549 lung cancer tumor-bearing mice
[4] = dose 30 mg/kg, title prints KM mouse H22 cells

O=P1(N(CCCl)CCCl)NCCCO1 (stereo not shown) [Cyclophosphamide, cyclophosphamide, reference compound]
Inhibition Rate (%) [1]: 70.59% | Relative Tumor Proliferation Rate (T/C) [1]: 39.73% | Relative Tumor Volume (RTV) [1]: 9.47 ± 2.91 | Tumor Weight [1]: 0.70 ± 0.39 g | Body Weight (g) (d1) ([1]; d1): 21.89 ± 1.22 g | Tumor Volume (mm3) (d 1) ([1]; d1): 115.15 ± 10.00 mm3 | Body Weight (g) (d30) ([1]; d30): 19.27 ± 1.49 g | Tumor Volume (mm3) (d30) ([1]; d30): 733.89 ± 352.79 mm3 | Inhibition Rate (%) ([2]; dose 30 mg/kg): 76.43% | Tumor Weight ([2]; dose 30 mg/kg): 0.38 ± 0.07 g | Body Weight (g) (d1) ([2]; dose 30 mg/kg, d 1): 19.62 ± 1.01 g | Tumor Volume (mm3) (d 1) ([2]; dose 30 mg/kg, d 1, title prints KM mouse H22 cells): 104.35 ± 30.89 mm3 | Body Weight (g) (d 15) ([2]; dose 30 mg/kg, d 15): 21.38 ± 0.67 g | Tumor Volume (mm3) (d30) ([2]; dose 30 mg/kg, d 30, title prints KM mouse H22 cells): 371.39 ± 112.68 mm3 | Relative Tumor Proliferation Rate (T/C) [2, 4]: 24.55 | Relative Tumor Volume (RTV) [2, 4]: 3.93 ± 1.86 | tumor inhibition rate ([2]; mouse Lewis lung cancer, CTX 30 mg/kg i.g. 15 days): 76.43% | spleen index compared with the control group ([3]; A549 tumor-bearing mice, cyclophosphamide, P<0.01): significantly lower | Spleen Index (%) ([3]; dose 26 mg/kg, n = 6): 0.21 ± 0.07 %
